# pIC50: −log10 of the molar value. Like-named read-outs stand apart in the source and are kept apart here.
# How the values were obtained:
# PI3Kγ = target: T1, PI3Kγ (Homo sapiens, UniProt P48736); experiment: In vitro kinase assay, PI3Kγ; format: biochemical; conditions: Fig. 1b; italicized values from the literature (italics not visible)
# T1 construct: purchased ThermoFisher Scientific
# kinome (kinase panel) [1] = target: T2, kinome (kinase panel) (Homo sapiens, UniProt Q6ZN16); experiment: KINOMEscan assay (Eurofins DiscoverX); format: binding; conditions: MAP3K15; 1000 nM; read-out: Percent Control
# T2 construct: purchased Eurofins DiscoverX
# kinome (kinase panel) [2] = target: T3, kinome (kinase panel) (Homo sapiens, UniProt P36896); experiment: KINOMEscan assay (Eurofins DiscoverX); format: binding; conditions: ACVR1B; 1000 nM; read-out: Percent Control
# T3 construct: purchased Eurofins DiscoverX
# T3 sequence (P36896 24-505): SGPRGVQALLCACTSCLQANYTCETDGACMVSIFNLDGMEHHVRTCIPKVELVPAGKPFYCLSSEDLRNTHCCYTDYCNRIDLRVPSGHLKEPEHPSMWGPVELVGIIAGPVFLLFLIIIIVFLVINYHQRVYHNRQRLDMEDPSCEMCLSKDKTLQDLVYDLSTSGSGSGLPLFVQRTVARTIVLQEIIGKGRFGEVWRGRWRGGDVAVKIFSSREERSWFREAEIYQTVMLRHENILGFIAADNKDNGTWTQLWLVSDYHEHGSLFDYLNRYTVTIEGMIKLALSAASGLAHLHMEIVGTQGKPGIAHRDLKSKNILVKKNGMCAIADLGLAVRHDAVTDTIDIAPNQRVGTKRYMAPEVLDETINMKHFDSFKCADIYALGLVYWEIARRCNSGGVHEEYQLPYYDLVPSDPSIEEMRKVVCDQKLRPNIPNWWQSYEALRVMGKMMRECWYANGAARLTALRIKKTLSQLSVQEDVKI
# kinome (kinase panel) [3] = target: T4, kinome (kinase panel) (Homo sapiens, UniProt P00519, E255K); experiment: KINOMEscan assay (Eurofins DiscoverX); format: binding; conditions: read-out: Percent Control
# T4 construct: purchased Eurofins DiscoverX
# T4 sequence (P00519 whole entry E255K): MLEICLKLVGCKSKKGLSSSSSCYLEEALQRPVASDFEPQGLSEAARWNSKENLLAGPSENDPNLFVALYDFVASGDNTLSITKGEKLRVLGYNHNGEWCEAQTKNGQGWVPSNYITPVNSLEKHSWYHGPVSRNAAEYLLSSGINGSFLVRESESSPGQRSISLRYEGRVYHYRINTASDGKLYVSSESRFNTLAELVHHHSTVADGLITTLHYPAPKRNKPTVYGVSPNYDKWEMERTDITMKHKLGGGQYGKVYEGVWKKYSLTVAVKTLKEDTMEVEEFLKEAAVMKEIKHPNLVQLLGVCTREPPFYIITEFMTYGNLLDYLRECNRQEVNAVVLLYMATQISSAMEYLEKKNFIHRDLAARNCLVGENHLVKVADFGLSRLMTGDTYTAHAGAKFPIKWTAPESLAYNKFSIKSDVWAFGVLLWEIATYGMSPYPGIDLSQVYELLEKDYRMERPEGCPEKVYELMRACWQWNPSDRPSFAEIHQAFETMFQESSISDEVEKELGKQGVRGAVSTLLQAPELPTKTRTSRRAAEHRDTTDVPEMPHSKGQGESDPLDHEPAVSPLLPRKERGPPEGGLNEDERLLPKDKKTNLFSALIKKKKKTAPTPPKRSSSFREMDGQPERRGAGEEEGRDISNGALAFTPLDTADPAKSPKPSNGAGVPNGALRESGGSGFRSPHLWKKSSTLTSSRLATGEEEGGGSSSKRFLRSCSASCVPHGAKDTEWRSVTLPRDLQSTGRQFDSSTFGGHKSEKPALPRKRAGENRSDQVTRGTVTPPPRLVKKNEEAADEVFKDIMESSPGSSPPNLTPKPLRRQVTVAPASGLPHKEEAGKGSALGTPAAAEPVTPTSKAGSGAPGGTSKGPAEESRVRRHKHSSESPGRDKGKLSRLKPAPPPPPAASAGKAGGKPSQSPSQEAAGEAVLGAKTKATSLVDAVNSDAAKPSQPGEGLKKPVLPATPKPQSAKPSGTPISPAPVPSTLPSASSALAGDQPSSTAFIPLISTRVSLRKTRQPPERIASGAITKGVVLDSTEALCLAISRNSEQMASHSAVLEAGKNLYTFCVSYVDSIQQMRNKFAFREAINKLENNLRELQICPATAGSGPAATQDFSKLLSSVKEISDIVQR
# kinome (kinase panel) [4] = target: T5, kinome (kinase panel) (Homo sapiens, UniProt P29323); experiment: KINOMEscan assay (Eurofins DiscoverX); format: binding; conditions: EPHB2; 1000 nM; read-out: Percent Control
# T5 construct: purchased Eurofins DiscoverX
# T5 sequence (P29323 19-1055): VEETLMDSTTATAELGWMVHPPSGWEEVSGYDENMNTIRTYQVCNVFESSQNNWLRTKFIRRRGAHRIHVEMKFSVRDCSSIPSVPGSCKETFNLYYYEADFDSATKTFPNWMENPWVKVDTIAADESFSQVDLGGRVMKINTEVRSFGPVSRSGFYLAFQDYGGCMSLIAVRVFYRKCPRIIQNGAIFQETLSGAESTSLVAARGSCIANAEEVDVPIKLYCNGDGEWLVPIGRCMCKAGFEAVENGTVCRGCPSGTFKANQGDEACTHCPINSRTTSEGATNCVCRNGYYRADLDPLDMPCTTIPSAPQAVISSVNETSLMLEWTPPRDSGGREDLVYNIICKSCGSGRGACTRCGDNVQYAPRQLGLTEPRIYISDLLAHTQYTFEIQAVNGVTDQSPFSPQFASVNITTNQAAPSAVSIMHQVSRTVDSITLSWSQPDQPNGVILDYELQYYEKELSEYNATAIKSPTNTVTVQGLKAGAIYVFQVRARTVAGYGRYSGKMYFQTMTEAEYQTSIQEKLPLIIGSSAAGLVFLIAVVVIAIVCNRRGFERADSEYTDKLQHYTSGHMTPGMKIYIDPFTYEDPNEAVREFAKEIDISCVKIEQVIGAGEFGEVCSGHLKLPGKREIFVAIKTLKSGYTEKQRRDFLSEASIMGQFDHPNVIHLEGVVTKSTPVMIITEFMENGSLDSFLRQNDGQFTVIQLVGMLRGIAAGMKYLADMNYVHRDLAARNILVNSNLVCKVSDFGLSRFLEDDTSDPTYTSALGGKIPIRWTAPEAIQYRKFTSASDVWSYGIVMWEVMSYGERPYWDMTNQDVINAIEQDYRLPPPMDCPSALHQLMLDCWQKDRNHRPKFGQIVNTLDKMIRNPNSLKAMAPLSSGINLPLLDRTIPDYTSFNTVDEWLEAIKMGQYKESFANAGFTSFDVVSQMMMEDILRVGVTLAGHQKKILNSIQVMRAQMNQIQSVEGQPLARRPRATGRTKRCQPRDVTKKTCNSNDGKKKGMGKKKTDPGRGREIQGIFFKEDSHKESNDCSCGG
# kinome (kinase panel) [5] = target: T6, kinome (kinase panel) (Homo sapiens, UniProt P53667); experiment: KINOMEscan assay (Eurofins DiscoverX); format: binding; conditions: LIMK1; 1000 nM; read-out: Percent Control
# T6 construct: purchased Eurofins DiscoverX
# T6 sequence (P53667 whole entry): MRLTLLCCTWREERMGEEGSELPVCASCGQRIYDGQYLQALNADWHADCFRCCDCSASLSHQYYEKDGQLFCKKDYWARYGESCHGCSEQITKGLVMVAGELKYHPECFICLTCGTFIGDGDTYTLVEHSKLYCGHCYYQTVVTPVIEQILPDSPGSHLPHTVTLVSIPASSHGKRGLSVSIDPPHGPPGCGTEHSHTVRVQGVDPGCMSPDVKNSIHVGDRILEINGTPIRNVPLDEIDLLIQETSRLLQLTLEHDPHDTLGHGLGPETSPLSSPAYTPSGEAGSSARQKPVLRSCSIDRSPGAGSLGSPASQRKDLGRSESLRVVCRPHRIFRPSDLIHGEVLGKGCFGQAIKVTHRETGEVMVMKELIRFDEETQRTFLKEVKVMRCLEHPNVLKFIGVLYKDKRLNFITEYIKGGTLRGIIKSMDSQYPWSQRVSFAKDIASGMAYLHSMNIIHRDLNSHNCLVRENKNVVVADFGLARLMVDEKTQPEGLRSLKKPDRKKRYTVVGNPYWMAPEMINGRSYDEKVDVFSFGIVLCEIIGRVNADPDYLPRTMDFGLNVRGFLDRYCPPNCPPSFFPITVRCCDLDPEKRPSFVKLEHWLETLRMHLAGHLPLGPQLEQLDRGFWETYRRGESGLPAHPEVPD
# kinome (kinase panel) [6] = target: T7, kinome (kinase panel) (Homo sapiens, UniProt P42680); experiment: KINOMEscan assay (Eurofins DiscoverX); format: binding; conditions: TEC; 1000 nM; read-out: Percent Control
# T7 construct: purchased Eurofins DiscoverX
# kinome (kinase panel) [7] = target: T8, kinome (kinase panel) (Homo sapiens, UniProt Q8TD19); experiment: KINOMEscan assay (Eurofins DiscoverX); format: binding; conditions: NEK9; 1000 nM; read-out: Percent Control
# T8 construct: purchased Eurofins DiscoverX
# kinome (kinase panel) [8] = target: T9, kinome (kinase panel) (Homo sapiens, UniProt P21802); experiment: KINOMEscan assay (Eurofins DiscoverX); format: binding; conditions: FGFR2; 1000 nM; read-out: Percent Control
# T9 construct: purchased Eurofins DiscoverX
# kinome (kinase panel) [9] = target: T10, kinome (kinase panel) (Homo sapiens, UniProt Q14012); experiment: KINOMEscan assay (Eurofins DiscoverX); format: binding; conditions: CAMK1; 1000 nM; read-out: Percent Control
# T10 construct: purchased Eurofins DiscoverX
# kinome (kinase panel) [10] = target: T11, kinome (kinase panel) (Homo sapiens, UniProt Q15746); experiment: KINOMEscan assay (Eurofins DiscoverX); format: binding; conditions: MYLK; 1000 nM; read-out: Percent Control
# T11 construct: purchased Eurofins DiscoverX
# kinome (kinase panel) [11] = target: T12, kinome (kinase panel) (Homo sapiens, UniProt P41240); experiment: KINOMEscan assay (Eurofins DiscoverX); format: binding; conditions: CSK; 1000 nM; read-out: Percent Control
# T12 construct: purchased Eurofins DiscoverX
# kinome (kinase panel) [12] = target: T13, kinome (kinase panel) (Homo sapiens, UniProt P49759); experiment: KINOMEscan assay (Eurofins DiscoverX); format: binding; conditions: CLK1; 1000 nM; read-out: Percent Control
# T13 construct: purchased Eurofins DiscoverX
# kinome (kinase panel) [13] = target: T14, kinome (kinase panel) (Homo sapiens, UniProt Q02750); experiment: KINOMEscan assay (Eurofins DiscoverX); format: binding; conditions: MEK1 (Entrez MAP2K1); 1000 nM; read-out: Percent Control
# T14 construct: purchased Eurofins DiscoverX
# T14 sequence (Q02750 whole entry): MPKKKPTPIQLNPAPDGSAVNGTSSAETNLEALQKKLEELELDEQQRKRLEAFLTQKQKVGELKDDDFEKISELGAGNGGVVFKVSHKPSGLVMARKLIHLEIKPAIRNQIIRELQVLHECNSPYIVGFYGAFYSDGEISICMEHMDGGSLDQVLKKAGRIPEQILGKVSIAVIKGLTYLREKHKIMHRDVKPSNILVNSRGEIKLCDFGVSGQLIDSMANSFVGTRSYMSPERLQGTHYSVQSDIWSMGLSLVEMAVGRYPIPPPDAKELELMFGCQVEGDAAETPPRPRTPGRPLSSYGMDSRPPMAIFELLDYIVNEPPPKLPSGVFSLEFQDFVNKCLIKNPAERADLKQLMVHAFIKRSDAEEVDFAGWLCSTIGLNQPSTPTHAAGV
# kinome (kinase panel) [14] = target: T15, kinome (kinase panel) (Homo sapiens, UniProt P0C264); experiment: KINOMEscan assay (Eurofins DiscoverX); format: binding; conditions: SgK110; 1000 nM; read-out: Percent Control
# T15 construct: purchased Eurofins DiscoverX
# kinome (kinase panel) [15] = target: T16, kinome (kinase panel) (Homo sapiens, UniProt P54764); experiment: KINOMEscan assay (Eurofins DiscoverX); format: binding; conditions: EPHA4; 1000 nM; read-out: Percent Control
# T16 construct: purchased Eurofins DiscoverX
# kinome (kinase panel) [16] = target: T17, kinome (kinase panel) (Homo sapiens, UniProt Q9BRS2); experiment: KINOMEscan assay (Eurofins DiscoverX); format: binding; conditions: RIOK1; 1000 nM; read-out: Percent Control
# T17 construct: purchased Eurofins DiscoverX
# kinome (kinase panel) [17] = target: T18, kinome (kinase panel) (Homo sapiens, UniProt Q12866); experiment: KINOMEscan assay (Eurofins DiscoverX); format: binding; conditions: MERTK; 1000 nM; read-out: Percent Control
# T18 construct: purchased Eurofins DiscoverX
# kinome (kinase panel) [18] = target: T19, kinome (kinase panel) (Homo sapiens, UniProt Q9NQU5); experiment: KINOMEscan assay (Eurofins DiscoverX); format: binding; conditions: PAK6; 1000 nM; read-out: Percent Control
# T19 construct: purchased Eurofins DiscoverX
# kinome (kinase panel) [19] = target: T20, kinome (kinase panel) (Homo sapiens, UniProt P50750); experiment: KINOMEscan assay (Eurofins DiscoverX); format: binding; conditions: CDK9; 1000 nM; read-out: Percent Control
# T20 construct: purchased Eurofins DiscoverX
# T20 sequence (P50750 whole entry): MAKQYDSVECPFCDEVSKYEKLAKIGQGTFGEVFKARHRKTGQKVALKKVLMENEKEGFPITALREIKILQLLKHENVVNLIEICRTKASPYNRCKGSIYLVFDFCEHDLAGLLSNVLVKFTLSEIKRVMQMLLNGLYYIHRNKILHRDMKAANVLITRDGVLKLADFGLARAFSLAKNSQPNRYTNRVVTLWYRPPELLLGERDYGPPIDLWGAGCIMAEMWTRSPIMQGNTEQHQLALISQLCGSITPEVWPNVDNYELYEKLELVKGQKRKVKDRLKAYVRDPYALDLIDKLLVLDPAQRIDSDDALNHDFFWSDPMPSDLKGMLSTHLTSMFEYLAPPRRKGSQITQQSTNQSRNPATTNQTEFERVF
# kinome (kinase panel) [20] = target: T21, kinome (kinase panel) (Homo sapiens, UniProt Q15831); experiment: KINOMEscan assay (Eurofins DiscoverX); format: binding; conditions: LKB1 (Entrez STK11); 1000 nM; read-out: Percent Control
# T21 construct: purchased Eurofins DiscoverX
# kinome (kinase panel) [21] = target: T22, kinome (kinase panel) (Homo sapiens, UniProt P11802); experiment: KINOMEscan assay (Eurofins DiscoverX); format: binding; conditions: 1000 nM, read-out: Percent Control
# T22 construct: purchased Eurofins DiscoverX
# T22 sequence (P11802 whole entry): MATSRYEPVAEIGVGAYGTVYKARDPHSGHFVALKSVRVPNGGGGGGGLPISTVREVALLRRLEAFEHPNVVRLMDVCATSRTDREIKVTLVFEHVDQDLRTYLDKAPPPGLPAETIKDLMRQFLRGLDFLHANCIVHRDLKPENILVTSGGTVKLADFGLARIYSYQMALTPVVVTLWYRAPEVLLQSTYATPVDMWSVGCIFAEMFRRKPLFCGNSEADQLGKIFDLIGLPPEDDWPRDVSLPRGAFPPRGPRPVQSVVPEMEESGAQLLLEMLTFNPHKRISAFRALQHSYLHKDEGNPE
# kinome (kinase panel) [22] = target: T23, kinome (kinase panel) (Homo sapiens, UniProt Q8NG66); experiment: KINOMEscan assay (Eurofins DiscoverX); format: binding; conditions: NEK11; 1000 nM; read-out: Percent Control
# T23 construct: purchased Eurofins DiscoverX
# T23 sequence (Q8NG66 whole entry): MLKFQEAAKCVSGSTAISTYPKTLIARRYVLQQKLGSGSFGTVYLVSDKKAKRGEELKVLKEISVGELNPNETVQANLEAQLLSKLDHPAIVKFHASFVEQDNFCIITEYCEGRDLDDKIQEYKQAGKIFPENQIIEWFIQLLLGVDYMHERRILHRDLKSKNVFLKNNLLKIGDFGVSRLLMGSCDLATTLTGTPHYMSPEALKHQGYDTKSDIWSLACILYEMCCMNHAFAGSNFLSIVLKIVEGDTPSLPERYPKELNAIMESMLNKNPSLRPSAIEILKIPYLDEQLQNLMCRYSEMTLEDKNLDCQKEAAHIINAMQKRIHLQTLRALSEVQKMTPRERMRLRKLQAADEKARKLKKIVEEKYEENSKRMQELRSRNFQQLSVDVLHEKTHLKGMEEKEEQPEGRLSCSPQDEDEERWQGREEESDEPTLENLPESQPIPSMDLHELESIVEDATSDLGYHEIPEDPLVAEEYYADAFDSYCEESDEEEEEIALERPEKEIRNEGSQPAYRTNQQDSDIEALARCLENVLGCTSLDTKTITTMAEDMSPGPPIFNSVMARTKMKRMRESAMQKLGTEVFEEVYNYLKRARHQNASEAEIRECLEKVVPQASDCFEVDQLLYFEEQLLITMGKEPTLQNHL
# kinome (kinase panel) [23] = target: T24, kinome (kinase panel) (Homo sapiens, UniProt P24941); experiment: KINOMEscan assay (Eurofins DiscoverX); format: binding; conditions: CDK2; 1000 nM; read-out: Percent Control
# T24 construct: purchased Eurofins DiscoverX
# DNA-PK = DNA-PK (Homo sapiens, UniProt P78527); experiment: In vitro kinase assay, DNA-PK; format: biochemical; conditions: Fig. 1b; italicized values from the literature (italics not visible)
# [24] = tested on: BRD4 binding to the MYC TSS in Huh7 and Jeko-1 cells; experiment: Chromatin immunoprecipitation of BRD4 at the MYC transcriptional start site; format: cell-based, human
# Protocol: assay for comparison relative to the no-drug control and to the time zero number of cells for assessment of growth inhibition (values between 0 and 100) and lethality (values less than 0), […]
# Hepatocellular carcinoma cells (Hep3B, HepG2, and Huh7), neuroblastoma cells (CHLA-255, CHLA-136, and SMS-KNCR), mantle cell lymphoma (Granta-519, Mino, and Jeko-1), or normal tonsillar epithelial cells (RRP008) were seeded in complete medium in 96-well tissue culture plates at 2.5 x 10^3 to 1 x 10^4 cells per well, respectively. Cells were incubated overnight to allow for attachment of adherent cells. […]
# or 100 µM in triplicate the following day. Cells were incubated for 48 hours at 37 °C then treated with either CCK8 reagent (Dojindo Molecular Technologies, Rockville, MD) or Alamar Blue (ThermoFisher Scientific) and incubated for 3-6 hours at 37 °C. For CCK8, absorbance was measured at 450 nm; for Alamar Blue, fluorescence signals were read as emission at 590 nm after excitation at 560 nm. Averaged values were normalized as a percentage of control and plotted and regressed for dose response using GraphPad Prism (GraphPad Software, Inc., La […]
# Chromatin immunoprecipitation
# Chromatin immunoprecipitation assays using antibodies against BRD4 and an isotype control and primers designed to the MYC transcriptional site and a non-regulated upstream locus were performed as previously described8. […]
smiles,measurement,setting,value
CN(C)C(=O)c1cc2cnc(Nc3ccc(-c4csc5c(=O)cc(N6CCOCC6)oc45)cc3)nc2n1C1CCCC1 [SRX3177],pIC50,PI3Kγ,5.50
same,remaining binding at 1 µM,kinome (kinase panel) [1],100%
same,remaining binding at 1 µM,kinome (kinase panel) [2],100%
same,remaining binding at 1 µM,kinome (kinase panel) [3],59%
same,remaining binding at 1 µM,kinome (kinase panel) [4],97%
same,remaining binding at 1 µM,kinome (kinase panel) [5],85%
same,remaining binding at 1 µM,kinome (kinase panel) [6],95%
same,remaining binding at 1 µM,kinome (kinase panel) [7],100%
same,remaining binding at 1 µM,kinome (kinase panel) [8],86%
same,remaining binding at 1 µM,kinome (kinase panel) [9],51%
same,remaining binding at 1 µM,kinome (kinase panel) [10],5.4%
same,remaining binding at 1 µM,kinome (kinase panel) [11],100%
same,remaining binding at 1 µM,kinome (kinase panel) [12],100%
same,remaining binding at 1 µM,kinome (kinase panel) [13],68%
same,remaining binding at 1 µM,kinome (kinase panel) [14],38%
same,remaining binding at 1 µM,kinome (kinase panel) [15],98%
same,remaining binding at 1 µM,kinome (kinase panel) [16],18%
same,remaining binding at 1 µM,kinome (kinase panel) [17],86%
same,remaining binding at 1 µM,kinome (kinase panel) [18],100%
same,remaining binding at 1 µM,kinome (kinase panel) [19],2.4%
same,remaining binding at 1 µM,kinome (kinase panel) [20],85%
same,remaining binding at 1 µM,kinome (kinase panel) [21]; CDK4-cyclinD1,0.9%
same,remaining binding at 1 µM,kinome (kinase panel) [21]; CDK4-cyclinD3,1.1%
same,remaining binding at 1 µM,kinome (kinase panel) [21]; CDK4,18%
same,remaining binding at 1 µM,kinome (kinase panel) [22],99%
same,remaining binding at 1 µM,kinome (kinase panel) [23],72%
same,pIC50,DNA-PK,7.68
same,occupancy of BRD4 at the transcriptional start site (TSS) of MYC by ChIP,[24],abrogated binding of BRD4 to the MYC TSS
